The values that follow are results of earlier work, collected in patent US9180194B2, “Method and composition for transdermal drug delivery” (Acrux DDS Pty Ltd, priority 2005, dated 2015).

The structures appear in SMILES notation.

For this data set the following is noted: continuous trans-scrotal delivery.

As to `C[C@]12CC[C@H]3[C@@H](CCC4=CC(=O)CC[C@@]43C)[C@@H]1CC[C@@H]2O` [testosterone], the “levels of DHT and DHT/testosterone ratios relative to normal” value is on record as 4 to 5 fold.
